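Protocol summary: plate cells (96-well), add compound at 5 concentrations, incubate 48 h, interpolate endpoints linearly. TGI marks complete inhibition of growth.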
What was measured:
Experiment in all cases: DTP human tumour cell line panel, 48 h
786-0 renal = tested on: 786-0 renal
BT-549 breast = tested on: BT-549 breast
CAKI-1 renal = tested on: CAKI-1 renal
HCT-116 colon = tested on: HCT-116 colon
HCT-15 colon = tested on: HCT-15 colon
HOP-62 NSCLC = tested on: HOP-62 NSCLC
HT29 colon = tested on: HT29 colon
K-562 leukemia = tested on: K-562 leukemia
M14 melanoma = tested on: M14 melanoma
MALME-3M melanoma = tested on: MALME-3M melanoma
MDA-MB-435 = tested on: MDA-MB-435
NCI-H226 lung = tested on: NCI-H226 lung
NCI-H23 lung = tested on: NCI-H23 lung
NCI-H522 lung = tested on: NCI-H522 lung
OVCAR-5 ovarian = tested on: OVCAR-5 ovarian
PC-3 prostate = tested on: PC-3 prostate
RPMI-8226 leukemia = tested on: RPMI-8226 leukemia
SF-268 CNS = tested on: SF-268 CNS
U251 CNS = tested on: U251 CNS
UACC-62 melanoma = tested on: UACC-62 melanoma

Structure (SMILES) | TGI (786-0 renal) | TGI (BT-549 breast) | TGI (CAKI-1 renal) | TGI (HCT-116 colon) | TGI (HCT-15 colon) | TGI (HOP-62 NSCLC) | TGI (HT29 colon) | TGI (K-562 leukemia) | TGI (M14 melanoma) | TGI (MALME-3M melanoma) | TGI (MDA-MB-435) | TGI (NCI-H226 lung) | TGI (NCI-H23 lung) | TGI (NCI-H522 lung) | TGI (OVCAR-5 ovarian) | TGI (PC-3 prostate) | TGI (RPMI-8226 leukemia) | TGI (SF-268 CNS) | TGI (U251 CNS) | TGI (UACC-62 melanoma)
O=C(c1ccc(-c2ccccc2)cc1)N(Cc1cccnc1)C(=S)N(Cc1cccnc1)C(=O)c1ccc(-c2ccccc2)cc1 | > 100 µM | > 100 µM | > 100 µM | > 100 µM | > 100 µM | > 100 µM | > 100 µM | > 100 µM | > 100 µM | > 100 µM | > 100 µM | > 100 µM | > 100 µM | > 100 µM | > 100 µM | > 100 µM | 72.4 µM | > 100 µM | > 100 µM | > 100 µM
Nc1c(C(=O)c2ccc(Cl)cc2)[nH]c(Nc2ccc(Cl)cc2)c1C(=S)Nc1ccccc1 | 9.41 µM | 8.02 µM | 23.2 µM | 13.4 µM | 16.9 µM | 20.5 µM | 18 µM | 17.8 µM | 34.1 µM | 36.1 µM | 20 µM | 19.4 µM | 11.9 µM | 20.3 µM | 27.3 µM | 41.2 µM | 56.3 µM | 17.8 µM | 9.73 µM | 27.1 µM
Nc1nc(Cl)cc(NCC2(CO)CC(CCCc3ccccc3)C2)n1 (centres undefined) | > 100 µM | > 100 µM | > 100 µM | > 100 µM | > 100 µM | > 100 µM | > 100 µM | > 100 µM | > 100 µM | > 100 µM | > 100 µM | > 100 µM | > 100 µM | > 100 µM | > 100 µM | > 100 µM | > 100 µM | > 100 µM | > 100 µM | > 100 µM
N=C1/C(=C/c2ccco2)C(=O)N=C2SC=NN12 | > 100 µM | > 100 µM | > 100 µM | > 100 µM | > 100 µM | > 100 µM | > 100 µM | > 100 µM | > 100 µM | > 100 µM | > 100 µM | > 100 µM | > 100 µM | > 100 µM | > 100 µM | > 100 µM | > 100 µM | > 100 µM | > 100 µM | > 100 µM
COCn1c(=O)n(C)c(=O)c2c1nc1c(c(=O)n(C)c(=O)n1COC)[n+]2[O-] | > 100 µM | 87.1 µM | 64.5 µM | 39.5 µM | 30.6 µM | 59.1 µM | > 100 µM | 24 µM | 43.9 µM | 31.3 µM | 40.2 µM | 40.8 µM | 14 µM | 44 µM | 97.2 µM | 34.1 µM | 37.8 µM | 77 µM | 59.6 µM | 33.7 µM
Cc1ccc2c(=O)cc(-c3cc4ccccc4s3)[nH]c2n1 | > 100 µM | > 100 µM | > 100 µM | > 100 µM | > 100 µM | > 100 µM | > 100 µM | > 100 µM | > 100 µM | > 100 µM | > 100 µM | 98.6 µM | > 100 µM | > 100 µM | > 100 µM | > 100 µM | > 100 µM | > 100 µM | > 100 µM | > 100 µM
COC(=O)c1c(O)ccc2c1c1cc3ccccc3c(O)c1n2Cc1ccccc1Cl | 54.1 µM | 91.7 µM | 61.9 µM | 28 µM | 77.1 µM | 59.3 µM | 25 µM | > 100 µM | 59.1 µM | 74.7 µM | 40.3 µM | > 100 µM | 46.2 µM | 29.5 µM | > 100 µM | > 100 µM | 70 µM | 97.7 µM | > 100 µM | 65.4 µM
[N-]=[N+]=CC(=O)OC1CCc2ccccc21 (centres undefined) | > 100 µM | > 100 µM | 52.5 µM | > 100 µM | > 100 µM | > 100 µM | > 100 µM | > 100 µM | – | > 100 µM | > 100 µM | > 100 µM | > 100 µM | > 100 µM | > 100 µM | > 100 µM | > 100 µM | > 100 µM | > 100 µM | > 100 µM
Clc1ccc(C2ON=C(c3ccccc3)N2C23CC4CC(CC(C4)C2)C3)cc1Cl (centres undefined) | > 10 µM | > 10 µM | > 10 µM | > 10 µM | > 10 µM | > 10 µM | > 10 µM | > 10 µM | > 10 µM | > 10 µM | > 10 µM | > 10 µM | > 10 µM | > 10 µM | > 10 µM | > 10 µM | > 10 µM | > 10 µM | > 10 µM | > 10 µM
O=C1CC2(CCN(CC3COc4ccccc4O3)CC2)C(=O)N1N1CCCCCC1 (centres undefined) | > 100 µM | > 100 µM | > 100 µM | > 100 µM | > 100 µM | > 100 µM | 47.6 µM | > 100 µM | > 100 µM | > 100 µM | > 100 µM | > 100 µM | > 100 µM | > 100 µM | > 100 µM | > 100 µM | > 100 µM | > 100 µM | > 100 µM | > 100 µM
CSc1ccc(/C=C/C(=O)c2nc3ccccc3[nH]2)cc1 | 43.6 µM | 48.4 µM | 6.19 µM | 31.4 µM | 40.6 µM | 82.1 µM | 46.2 µM | > 100 µM | 36.8 µM | > 100 µM | 35.8 µM | 56.9 µM | 89.5 µM | 33.5 µM | 88.2 µM | 68.6 µM | 13.4 µM | 93.6 µM | – | 36.2 µM
CC[C@]1(Cc2ccc(OC)c(OC)c2)C=[N+]([O-])O[C@H](OC2CCCCC2c2ccccc2)[C@@H]1OC(C)=O (some centres undefined) | > 100 µM | > 100 µM | 56.8 µM | > 100 µM | > 100 µM | > 100 µM | > 100 µM | > 100 µM | > 100 µM | > 100 µM | > 100 µM | > 100 µM | > 100 µM | > 100 µM | > 100 µM | > 100 µM | 69.7 µM | – | > 100 µM | > 100 µM
O=C1c2ccccc2-c2nc(-c3cccs3)cc3c2c1nc1ccccc13 | > 100 µM | > 100 µM | > 100 µM | 42.2 µM | 57.1 µM | 77.6 µM | 62.6 µM | > 100 µM | 18.3 µM | 23.1 µM | 4.51 µM | > 100 µM | 38.8 µM | 83.5 µM | > 100 µM | > 100 µM | > 100 µM | 56.8 µM | > 100 µM | 19.3 µM
COc1cc(/C=C2/CCCc3ccccc3C2=O)cc(OC)c1OC | > 62 µM | > 78.5 µM | > 59.5 µM | > 49.9 µM | > 100 µM | > 58.9 µM | > 100 µM | > 23.8 µM | > 67.4 µM | 29.5 µM | > 70.6 µM | > 79.8 µM | > 87 µM | 41 µM | > 100 µM | > 59.3 µM | > 78.9 µM | > 52.3 µM | > 88.4 µM | > 67.4 µM
C/C(=N\N)C(CN1CCCCC1)C(c1ccccc1)c1c(O)c2ccccc2oc1=O (centres undefined) | > 100 µM | > 100 µM | > 100 µM | > 100 µM | > 100 µM | > 100 µM | > 100 µM | > 100 µM | > 100 µM | > 100 µM | > 100 µM | > 100 µM | > 100 µM | > 100 µM | > 100 µM | > 100 µM | > 100 µM | > 100 µM | > 100 µM | > 100 µM
O=c1[nH]c(=S)n(-c2cccc3ccccc23)c(O)c1/C=C1\C=Nc2ccccc21 | 3.55 µM | 3.55 µM | 8.65 µM | 4.55 µM | 3.45 µM | 10.7 µM | 5.03 µM | 7.11 µM | 3.77 µM | 5.8 µM | 6.69 µM | 5.8 µM | 3.48 µM | 10.2 µM | 5.47 µM | 6.74 µM | 4.96 µM | 11.4 µM | 5.45 µM | 3.26 µM
CSC1=NC(=O)CCN1C1OCC(OC(C)=O)C(OC(C)=O)C1OC(C)=O (centres undefined) | > 31.6 µM | 25 µM | > 31.6 µM | > 31.6 µM | > 31.6 µM | > 31.6 µM | > 31.6 µM | > 31.6 µM | – | 23.2 µM | > 31.6 µM | > 31.6 µM | > 31.6 µM | > 31.6 µM | > 31.6 µM | > 31.6 µM | > 31.6 µM | 29.3 µM | > 31.6 µM | > 100 µM
O=C1CC(C(O)C(O)C(O)CO)CC(=O)N1 (centres undefined) | > 100 µM | > 100 µM | > 100 µM | > 100 µM | > 100 µM | > 100 µM | > 100 µM | > 100 µM | > 100 µM | > 100 µM | > 100 µM | > 100 µM | > 100 µM | > 100 µM | > 100 µM | > 100 µM | > 100 µM | > 100 µM | > 100 µM | –
CSC1=C(C(=O)N(COCC[Si](C)(C)C)c2ccccc2Br)CCC(C(C)(C)C)C1 (centres undefined) | 26.2 µM | > 100 µM | 18.1 µM | 18.3 µM | 26.1 µM | 53.2 µM | 64.4 µM | 29.1 µM | 76.3 µM | 46.4 µM | > 100 µM | 34.4 µM | > 100 µM | 24.6 µM | 28.7 µM | > 100 µM | > 100 µM | – | 24 µM | 39.9 µM
